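Each compound was tested at five concentrations against cells in 96-well plates for 48 hours. The concentration for 50% growth inhibition is given as GI50.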 Activity calls are given as the source filed them. Rule as the data show it: active = GI50 up to about 1.1 µM and inactive = higher.
What was measured:
Test in all cases: NCI-60 cell line screen, 48 h
DU-145 = system: DU-145
CCRF-CEM = system: CCRF-CEM
UACC-62 = system: UACC-62
OVCAR-5 = system: OVCAR-5
UO-31 = system: UO-31
NCI-H460 = system: NCI-H460
EKVX = system: EKVX
PC-3 = system: PC-3
OVCAR-4 = system: OVCAR-4
T47D = system: T47D
HOP-92 = system: HOP-92
BT-549 = system: BT-549
SN12C = system: SN12C
K562 = system: K562
RXF 393 = system: RXF 393
786-0 = system: 786-0
HL-60 = system: HL-60
CAKI-1 = system: CAKI-1
SF-268 = system: SF-268
SW-620 = system: SW-620
NCI-H522 = system: NCI-H522
SNB-19 = system: SNB-19
A498 = system: A498
NCI-H23 = system: NCI-H23
UACC-257 = system: UACC-257
SK-OV-3 = system: SK-OV-3
HCT-15 = system: HCT-15
Malme-3M = system: Malme-3M
ACHN = system: ACHN
HOP-62 = system: HOP-62
HCT-116 = system: HCT-116
SF-539 = system: SF-539
M14 = system: M14
Hs-578T = system: Hs-578T
COLO 205 = system: COLO 205
LOX IMVI = system: LOX IMVI
MDA-MB-231 = system: MDA-MB-231
TK-10 = system: TK-10
NCI-H226 = system: NCI-H226
SK-MEL-5 = system: SK-MEL-5
MDA-MB-435 = system: MDA-MB-435
KM12 = system: KM12
SR = system: SR
HT-29 = system: HT-29
OVCAR-3 = system: OVCAR-3
SF-295 = system: SF-295
HCC 2998 = system: HCC 2998
SK-MEL-2 = system: SK-MEL-2
IGROV-1 = system: IGROV-1
MDA-N = system: MDA-N
MOLT-4 = system: MOLT-4
NCI/ADR-RES = system: NCI/ADR-RES
SK-MEL-28 = system: SK-MEL-28
A549 = system: A549
OVCAR-8 = system: OVCAR-8
MCF7 = system: MCF7
U-251 = system: U-251
RPMI-8226 = system: RPMI-8226
SNB-75 = system: SNB-75

CC(C)c1cc(C(C)C)c(B(c2ccccc2)c2ccccc2)c(C(C)C)c1Br
GI50 (DU-145): > 100 µM (inactive) | GI50 (CCRF-CEM): > 100 µM (inactive) | GI50 (UACC-62): > 100 µM (inactive) | GI50 (OVCAR-5): > 100 µM (inactive) | GI50 (UO-31): > 100 µM (inactive) | GI50 (NCI-H460): > 100 µM (inactive) | GI50 (EKVX): > 100 µM (inactive) | GI50 (PC-3): > 100 µM (inactive) | GI50 (OVCAR-4): > 100 µM (inactive) | GI50 (T47D): > 100 µM (inactive) | GI50 (HOP-92): > 100 µM (inactive) | GI50 (BT-549): > 100 µM (inactive) | GI50 (SN12C): > 100 µM (inactive) | GI50 (K562): > 100 µM (inactive) | GI50 (RXF 393): > 100 µM (inactive) | GI50 (786-0): > 100 µM (inactive) | GI50 (HL-60): > 100 µM (inactive) | GI50 (CAKI-1): > 100 µM (inactive) | GI50 (SF-268): > 100 µM (inactive) | GI50 (SW-620): > 100 µM (inactive) | GI50 (NCI-H522): > 100 µM (inactive) | GI50 (SNB-19): > 100 µM (inactive) | GI50 (A498): > 100 µM (inactive) | GI50 (NCI-H23): > 100 µM (inactive) | GI50 (UACC-257): > 100 µM (inactive) | GI50 (SK-OV-3): > 100 µM (inactive) | GI50 (HCT-15): > 100 µM | GI50 (Malme-3M): > 100 µM (inactive) | GI50 (ACHN): > 100 µM (inactive) | GI50 (HOP-62): > 100 µM (inactive) | GI50 (HCT-116): > 100 µM (inactive) | GI50 (SF-539): > 100 µM (inactive) | GI50 (M14): > 100 µM (inactive) | GI50 (Hs-578T): > 100 µM (inactive) | GI50 (COLO 205): > 100 µM (inactive) | GI50 (LOX IMVI): > 100 µM (inactive) | GI50 (MDA-MB-231): > 100 µM (inactive) | GI50 (TK-10): > 100 µM (inactive) | GI50 (NCI-H226): > 100 µM (inactive) | GI50 (SK-MEL-5): > 100 µM (inactive) | GI50 (MDA-MB-435): > 100 µM (inactive) | GI50 (KM12): > 100 µM (inactive) | GI50 (SR): > 100 µM (inactive) | GI50 (HT-29): > 100 µM (inactive) | GI50 (OVCAR-3): > 100 µM (inactive) | GI50 (SF-295): > 100 µM (inactive) | GI50 (HCC 2998): > 100 µM (inactive) | GI50 (SK-MEL-2): > 100 µM (inactive) | GI50 (IGROV-1): > 100 µM (inactive) | GI50 (MDA-N): > 100 µM (inactive) | GI50 (MOLT-4): > 100 µM (inactive) | GI50 (NCI/ADR-RES): > 100 µM (inactive) | GI50 (SK-MEL-28): > 100 µM (inactive) | GI50 (A549): > 100 µM (inactive) | GI50 (OVCAR-8): > 100 µM (inactive) | GI50 (MCF7): > 100 µM (inactive) | GI50 (U-251): > 100 µM (inactive)

c1ccc(CN2CCCN3CCN(CCCN(Cc4ccccc4)CC3)CC2)cc1
GI50 (DU-145): 68.5 µM (inactive) | GI50 (CCRF-CEM): 46.9 µM (inactive) | GI50 (UACC-62): 35.1 µM (inactive) | GI50 (OVCAR-5): > 100 µM (inactive) | GI50 (UO-31): > 100 µM (inactive) | GI50 (NCI-H460): 39.4 µM (inactive) | GI50 (RPMI-8226): 13 µM (inactive) | GI50 (EKVX): 41.9 µM (inactive) | GI50 (PC-3): 30.5 µM (inactive) | GI50 (OVCAR-4): 35.6 µM (inactive) | GI50 (T47D): 35.7 µM (inactive) | GI50 (HOP-92): 92 µM (inactive) | GI50 (BT-549): 44.5 µM (inactive) | GI50 (SN12C): 31.5 µM (inactive) | GI50 (SNB-75): 32 µM (inactive) | GI50 (K562): 32 µM (inactive) | GI50 (RXF 393): > 100 µM (inactive) | GI50 (786-0): 42.2 µM (inactive) | GI50 (HL-60): 24.7 µM (inactive) | GI50 (CAKI-1): > 100 µM (inactive) | GI50 (SF-268): 78.7 µM (inactive) | GI50 (SW-620): > 100 µM (inactive) | GI50 (NCI-H522): 36.1 µM (inactive) | GI50 (SNB-19): 35.5 µM (inactive) | GI50 (A498): 58.5 µM (inactive) | GI50 (NCI-H23): 34.1 µM (inactive) | GI50 (UACC-257): 22 µM (inactive) | GI50 (SK-OV-3): > 100 µM (inactive) | GI50 (HCT-15): > 100 µM | GI50 (Malme-3M): 0.227 µM (active) | GI50 (ACHN): > 100 µM (inactive) | GI50 (HOP-62): > 100 µM (inactive) | GI50 (HCT-116): 35.2 µM (inactive) | GI50 (SF-539): 87.7 µM (inactive) | GI50 (M14): 38 µM (inactive) | GI50 (Hs-578T): > 100 µM (inactive) | GI50 (COLO 205): 25.3 µM (inactive) | GI50 (LOX IMVI): 51.9 µM (inactive) | GI50 (MDA-MB-231): 38.2 µM (inactive) | GI50 (TK-10): 55.6 µM (inactive) | GI50 (NCI-H226): 73.6 µM (inactive) | GI50 (SK-MEL-5): 19.3 µM (inactive) | GI50 (MDA-MB-435): 32.7 µM (inactive) | GI50 (KM12): 31.6 µM (inactive) | GI50 (SR): 43 µM (inactive) | GI50 (HT-29): 35.9 µM (inactive) | GI50 (OVCAR-3): 27.2 µM (inactive) | GI50 (SF-295): 87.7 µM (inactive) | GI50 (SK-MEL-2): 22.2 µM (inactive) | GI50 (IGROV-1): 60 µM (inactive) | GI50 (MDA-N): 30.5 µM (inactive) | GI50 (MOLT-4): 81.3 µM (inactive) | GI50 (NCI/ADR-RES): > 100 µM (inactive) | GI50 (SK-MEL-28): 39.4 µM (inactive) | GI50 (A549): 69.5 µM (inactive) | GI50 (OVCAR-8): 50.9 µM (inactive) | GI50 (MCF7): 38.3 µM (inactive) | GI50 (U-251): 36.4 µM (inactive)

COC(=O)C1=C(C(=O)OC)c2cc(OC)ccc2C(C(=S)N(C)C)S1 (stereo not drawn)
GI50 (DU-145): > 100 µM (inactive) | GI50 (UACC-62): > 100 µM (inactive) | GI50 (OVCAR-5): > 100 µM (inactive) | GI50 (UO-31): > 100 µM (inactive) | GI50 (NCI-H460): > 100 µM (inactive) | GI50 (RPMI-8226): > 100 µM (inactive) | GI50 (EKVX): > 100 µM (inactive) | GI50 (PC-3): > 100 µM (inactive) | GI50 (OVCAR-4): > 100 µM (inactive) | GI50 (T47D): > 100 µM (inactive) | GI50 (HOP-92): 0.0111 µM (active) | GI50 (BT-549): 19.2 µM (inactive) | GI50 (SN12C): > 100 µM (inactive) | GI50 (SNB-75): > 100 µM (inactive) | GI50 (K562): > 100 µM (inactive) | GI50 (RXF 393): > 100 µM (inactive) | GI50 (786-0): > 100 µM (inactive) | GI50 (CAKI-1): 99.1 µM (inactive) | GI50 (SF-268): > 100 µM (inactive) | GI50 (SW-620): > 100 µM (inactive) | GI50 (SNB-19): > 100 µM (inactive) | GI50 (A498): > 100 µM (inactive) | GI50 (NCI-H23): > 100 µM (inactive) | GI50 (UACC-257): > 100 µM (inactive) | GI50 (SK-OV-3): > 100 µM (inactive) | GI50 (HCT-15): > 100 µM | GI50 (Malme-3M): > 100 µM (inactive) | GI50 (ACHN): > 100 µM (inactive) | GI50 (HOP-62): > 100 µM (inactive) | GI50 (HCT-116): > 100 µM (inactive) | GI50 (M14): > 100 µM (inactive) | GI50 (Hs-578T): > 100 µM (inactive) | GI50 (COLO 205): > 100 µM (inactive) | GI50 (LOX IMVI): > 100 µM (inactive) | GI50 (MDA-MB-231): > 100 µM (inactive) | GI50 (TK-10): > 100 µM (inactive) | GI50 (NCI-H226): > 100 µM (inactive) | GI50 (MDA-MB-435): > 100 µM (inactive) | GI50 (KM12): > 100 µM (inactive) | GI50 (SR): > 100 µM (inactive) | GI50 (OVCAR-3): > 100 µM (inactive) | GI50 (SF-295): > 100 µM (inactive) | GI50 (HCC 2998): > 100 µM (inactive) | GI50 (SK-MEL-2): > 100 µM (inactive) | GI50 (IGROV-1): > 100 µM (inactive) | GI50 (MDA-N): > 100 µM (inactive) | GI50 (MOLT-4): > 100 µM (inactive) | GI50 (NCI/ADR-RES): > 100 µM (inactive) | GI50 (SK-MEL-28): > 100 µM (inactive) | GI50 (A549): > 100 µM (inactive) | GI50 (OVCAR-8): > 100 µM (inactive) | GI50 (MCF7): > 100 µM (inactive) | GI50 (U-251): > 100 µM (inactive)

— ChEMBL document CHEMBL1201862, “PubChem BioAssay data set” (2004)
